Legend:
[1] = system: PER2, NPAS2, BMAL1 and CRY1; experiment: Cytosol-nuclear fractionation of U2OS cells, other clock proteins; type: cell-based, human; settings: 20 μM, two days
Description: U2 OS cells treated with 20 μM CLK8 and 0.5% DMSO were used for fractionation analysis. The 4×10^5 was suspended in 500 ul cytosolic lysis buffer (10 mM HEPES pH 7,9, 10 mM KCl, 0.1 mM EDTA, 0.05% NP40 with protease inhibitors) and incubated on ice for 10 minutes. The lysate was centrifuged for 3 minutes at 3000 rpm at 4° C. The resulting supernatant was centrifuged one more time and supernatant collected as cytosolic fraction. On the other hand, the resulting pellet from lysate centrifugation was suspended in nuclear lysis buffer (20 mM HEPES pH 7.9, 0.4 M NaCl, 1 mM EDTA, 10% glycerol with protease inhibitors) and sonicated 2 times 10 seconds with 60% power. After centrifuge at 15 000 g for 5 minutes at 4° C., supernatant was collected as nuclear fraction. Collected fractions were used for Western Blot analysis. Fractionation efficiency was checked with Western Blot by using tubulin (Sigma T9026) as cytosolic marker and Histone-H3 (abcam ab1791) as nuclear marker.

[2] = system: Clock-deficient MDA MB231 cells; experiment: Bmal1::dluc rhythm in Clock knockout MDA MB231 cells; type: cell-based; settings: Clock knockout MDA MB231, different concentrations
Description: (§1) We used Bmal1::dluc U2-OS and Per1::dluc NIH 3T3, and continuously monitored the bioluminescence to record circadian rhythm. This experiment was performed in 96-well plates (triplicates) and 35-mm dishes (duplicates) in the secondary screen and detailed characterization steps respectively. Briefly, cells were seeded to reach confluency. A day after, the medium was replaced with DMEM containing 0.1 μM Dexamethasone to synchronize cells. […] The 96-well plates were covered and bioluminescence was monitored by Synergy H1 Hybrid Multi-Mode Reader every 32 minutes. […] Bioluminescence was recorded every 10 minutes for 4-6 days. […] The first day's data was excluded from the analysis due to transient perturbations of luminescence after the medium change.
HEK 293T cells at 75-85% confluency were transfected with […] of pLV6-Bmal-luc plasmid, 9 ng of pCMV-AR8.2dvpr packaging vector and 1 ng of pCMV-VSVG envelope vector for 16 h. […] At 72-hour post-transduction, the circadian rhythms of cells monitored using Lumicycle.
We used Bmal1::dluc U2-OS and Per1::dluc NIH 3T3, and continuously monitored the bioluminescence to record circadian rhythm. […] The 96-well plates were covered and bioluminescence was monitored by Synergy H1 Hybrid Multi-Mode Reader every 32 minutes. […] Bioluminescence was recorded every 10 minutes for 4-6 days. […]

Per1::dluc NIH 3T3 cells = experiment: Real-time monitoring of circadian rhythm, Per1::dluc NIH 3T3; type: cell-based, mouse
Description: as §1
We used Bmal1::dluc U2-OS and Per1::dluc NIH 3T3, and continuously monitored the bioluminescence to record circadian rhythm. […] The 96-well plates were covered and bioluminescence was monitored by Synergy H1 Hybrid Multi-Mode Reader every 32 minutes. […] Bioluminescence was recorded every 10 minutes for 4-6 days. […] The first day's data was excluded from the analysis due to transient perturbations of luminescence after the medium change.

CC1(C)CCc2c(cc(OCC(=O)Nc3ccccc3C(N)=O)c3c(-c4ccccc4)cc(=O)oc23)O1 [CLK8, 2-[2-({12,12-dimethyl-4-oxo-6-phenyl-3,11-dioxatricyclo [8.4.0.0,2,7]tetradeca-1,5,7,9-tetraen-8-yl}oxy)acetamido] benzamide]
level of PER2, NPAS2, BMAL1 and CRY1 [1]: comparable to the control samples | CLK8-mediated increase in Bmal1-luc intensity [2]: abolished | period of circadian rhythm (Per1::dluc NIH 3T3 cells): no period changes | amplitude of circadian rhythm (Per1::dluc NIH 3T3 cells; dose dependent): enhances the amplitude

Reference: patent publication US12558342B2, “2-[2-({12,12-dimethyl-4-oxo-6-phenyl-3,11-dioxatricyclo[8.4.0.0,2,7]tetradeca-1,5,7,9-tetraen-8-yl}oxy)acetamido]benzamide and derivatives as inhibitor of clock:bmal1 interaction for the treatment of circadian rhythm diseases and disorders” (KOC UNIVERSITESI, priority 2019, dated 2026)
